Test results published in PubChem BioAssay (NCI).
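Protocol summary: plate cells (96-well), add compound at 5 concentrations, incubate 48 h, interpolate endpoints linearly. TGI: concentration producing complete growth inhibition.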

Assays:
Assay in all cases: growth of human tumour cells (NCI), 48 h
OVCAR-4 ovarian = tested on: OVCAR-4 ovarian
HOP-92 NSCLC = tested on: HOP-92 NSCLC
UACC-62 melanoma = tested on: UACC-62 melanoma
HOP-62 NSCLC = tested on: HOP-62 NSCLC
ACHN renal = tested on: ACHN renal
SNB-19 CNS = tested on: SNB-19 CNS
SK-MEL-5 melanoma = tested on: SK-MEL-5 melanoma
NCI-H23 lung = tested on: NCI-H23 lung
SK-OV-3 ovarian = tested on: SK-OV-3 ovarian
DU-145 prostate = tested on: DU-145 prostate

SMILES | TGI (OVCAR-4 ovarian) [µM] | TGI (HOP-92 NSCLC) [µM] | TGI (UACC-62 melanoma) [µM] | TGI (HOP-62 NSCLC) [µM] | TGI (ACHN renal) [µM] | TGI (SNB-19 CNS) [µM] | TGI (SK-MEL-5 melanoma) [µM] | TGI (NCI-H23 lung) [µM] | TGI (SK-OV-3 ovarian) [µM] | TGI (DU-145 prostate) [µM]
CC(C)(C)C1CCC2(CC1)c1[nH]c3ccccc3c1C1(CCC(C(C)(C)C)CC1)c1[nH]c3ccccc3c12 (stereo unspecified) | > 100 | > 100 | > 100 | > 100 | > 100 | > 100 | > 100 | > 100 | > 100 | 
NC1CNC(=O)c2c(Cl)sc(Cl)c21 (stereo unspecified) | > 100 | > 100 | > 100 | > 100 | > 100 | > 100 |  | > 100 | > 100 | > 100
Cc1cn(C(C)OCCN2C(=O)c3ccccc3C2=O)c(=O)[nH]c1=O (stereo unspecified) | > 100 | > 100 | > 100 | > 100 | > 100 | > 100 | > 100 | > 100 |  | > 100
O=c1[nH]nc(-c2ccccc2)c2[nH]c(-c3ccccc3)cc12 | > 100 | > 100 |  | > 100 |  | > 100 |  | > 100 | > 100 | > 100
Cc1cc2[nH]c3c(C#N)c4c(c(=O)n3c2cc1C)CCCC4 | > 100 | > 100 | > 100 |  | > 100 | > 100 | > 100 | > 100 | 27.1 | > 100
CCOC(=O)C1=C(OC(OCC)C(CC)[Se]c2ccccc2)CCCC1 (stereo unspecified) | 33 | 46 | 62.9 | > 100 | 82.2 | > 100 | 35.8 | 25.5 | > 100 | 
NC(=O)c1cc2ccccc2o/c1=N/O |  | > 100 | > 100 | > 100 | > 100 | > 100 | > 100 | > 100 | > 100 | > 100
COC1(OC)CCCCC2c3cccc(OC(C)=O)c3C21OC(C)=O (stereo unspecified) | > 100 |  | > 100 | > 100 | > 100 | > 100 | > 100 | > 100 | > 100 | 
O=C1C=C(c2ccccc2)O/C1=C/C(=O)c1ccc(Cl)cc1 | 32.9 | 44.9 | 28.5 | 85.3 | 30.5 | > 100 | 44.2 |  | > 100 | > 100
CSc1nc2c(c(=O)n1C)N=C(c1ccccc1)[C@H](C(CC(=O)c1ccccc1)c1ccccc1)C(c1ccccc1)N2 (stereo partly specified) | > 100 | > 100 | > 100 | > 100 | > 100 | > 100 | > 100 | > 100 |  | > 100
COc1c(C)c2nc3ccccc3[nH]c2c2c(=O)ccnc12 | > 100 | > 100 |  | > 100 | > 100 | > 100 | > 100 | > 100 | > 100 | > 100
